Source: PMC2664537 (Journal of medicinal chemistry, 2008)

Key:
[1] = solubility observed during assay preparation; format: physicochemical; conditions: for solubility in buffer with 5% DMSO: after being dissolved in DMSO initially
[2] = molecular target: rhodopsin in urea-washed rod outer-segment membranes (MII state, R*) (Bos taurus, UniProt P02699); assay: extra MII stabilization assay; format: biochemical, bovine
[3] = molecular target: R*-Gt interaction (photoactivated rhodopsin / transducin) (Bos taurus, UniProt P02699); assay: R*-Gt binding and release assay; design: species or system bovine
Chain of R*-Gt interaction (photoactivated rhodopsin / transducin) (P02699 whole entry): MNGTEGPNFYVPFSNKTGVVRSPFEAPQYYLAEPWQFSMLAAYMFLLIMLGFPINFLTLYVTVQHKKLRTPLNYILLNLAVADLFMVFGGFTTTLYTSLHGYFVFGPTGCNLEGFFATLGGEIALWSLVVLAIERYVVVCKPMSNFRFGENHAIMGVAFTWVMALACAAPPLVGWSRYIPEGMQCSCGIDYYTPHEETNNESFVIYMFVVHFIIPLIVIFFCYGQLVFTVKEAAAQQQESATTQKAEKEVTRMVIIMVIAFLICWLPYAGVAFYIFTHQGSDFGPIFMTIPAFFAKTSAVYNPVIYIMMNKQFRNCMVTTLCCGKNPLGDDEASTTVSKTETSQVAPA

Chain of rhodopsin in urea-washed rod outer-segment membranes (MII state, R*) (P02699 whole entry): as above

## C[C@H]1[C@H](C)CC[C@]2(C(=O)O)CC[C@]3(C)C(=CC[C@@H]4[C@@]5(C)C[C@@H](O)[C@H](O)[C@@](C)(CO)[C@@H]5[C@H](O)C[C@]43C)[C@H]12 [Compound 2, madecassic acid]
[1]
  solubility in buffer with 5% DMSO: soluble

## CC1(C)[C@@H](O)CC[C@]2(C)[C@H]3C(=O)C=C4[C@@H]5C[C@@](C)(C(=O)O)CC[C@]5(C)CC[C@@]4(C)[C@]3(C)CC[C@@H]12 [Compound 12]
[2]; pure compound
  activity in extra MII assay using pure compound: neither showed significant activity

## C[C@]12CC[C@H]3[C@@H](CCC4=CC(=O)CC[C@@]43C)[C@@H]1CC[C@@H]2C(=O)COS(=O)(=O)c1ccc(Br)cc1 [Compound 3]
[1]; dissolved in DMSO/butanol solution, then buffer added
  solubility in buffer with 3% DMSO/3% butanol: remained soluble

## CC1(C)CC[C@]2(C(=O)O)CC[C@]3(C)C(=CC[C@@H]4[C@@]5(C)C[C@H](O)[C@H](O)[C@@](C)(C(=O)O)[C@@H]5CC[C@]43C)[C@@H]2C1 [Compound 16, medicagenic acid]
[3]
  IC50: 2000 µM
[1]
  solubility in buffer with 5% DMSO: soluble
[2]
  EC50: 350 µM
